Reference: the NIST ThermoML archive (doi:10.1016/j.jct.2019.03.040)

How the values were obtained:
[1] = Liquid; for Critical pressure / Critical temperature: Resistive pulse heating; for thermal diffusivity: 101.33 kPa, Laser flash apparatus
[2] = molar heat capacity at constant pressure; conditions: 101.33 kPa, Small sample (50 mg) DSC

CC(=O)CCC(=O)O [4-oxopentanoic acid]
[1]
Conditions | Critical pressure [kPa] | Critical temperature [K]
– | 5310 | 766

[2], Metastable liquid
Conditions | molar heat capacity at constant pressure [J/K/mol]
302.62 K | 245.93
303.12 K | 246.16
303.62 K | 246.05
304.12 K | 246.28
304.62 K | 246.16
305.12 K | 246.51
305.62 K | 246.4
306.12 K | 246.86
306.62 K | 246.86
307.12 K | 246.86
307.62 K | 246.86
308.12 K | 246.98
308.62 K | 247.44
309.12 K | 247.09
309.62 K | 247.33
310.12 K | 247.44
310.62 K | 248.02
311.12 K | 247.91
311.62 K | 247.91
312.12 K | 247.91
312.62 K | 247.91
313.12 K | 247.56
313.62 K | 247.91
314.12 K | 248.25
314.62 K | 248.37
315.12 K | 248.49
315.62 K | 248.83
316.12 K | 248.95
316.62 K | 249.53
317.12 K | 249.65
317.62 K | 249.76
318.12 K | 250.46
318.62 K | 250.23
319.12 K | 250
319.62 K | 250.34
320.12 K | 250.11
320.62 K | 250.46
321.12 K | 250.34
321.62 K | 250.46
322.12 K | 250.58
322.62 K | 250.46
323.12 K | 251.16
323.62 K | 251.04
324.12 K | 251.27
324.62 K | 251.51
325.12 K | 251.27
325.62 K | 251.39
326.12 K | 251.74
326.62 K | 252.2
327.12 K | 251.85
327.62 K | 251.85
328.12 K | 251.85
328.62 K | 252.09
329.12 K | 252.32
329.62 K | 251.85
330.12 K | 252.55
330.62 K | 252.55
331.12 K | 252.67
331.62 K | 253.25
332.12 K | 253.6
332.62 K | 253.83
333.12 K | 254.06
333.62 K | 254.29
334.12 K | 254.06
334.62 K | 254.18
335.12 K | 254.41
335.62 K | 254.41
336.12 K | 254.87
336.62 K | 254.64
337.12 K | 255.11
337.62 K | 255.45
338.12 K | 255.22
338.62 K | 255.22
339.12 K | 255.57
339.62 K | 255.8
340.12 K | 256.03
340.62 K | 256.5
341.12 K | 256.73
341.62 K | 257.08
342.12 K | 257.43
342.62 K | 257.54
343.12 K | 257.66
343.62 K | 257.89
344.12 K | 257.89
344.62 K | 257.31
345.12 K | 257.43
345.62 K | 257.54
346.12 K | 257.89
346.62 K | 258.24
347.12 K | 258.59
347.62 K | 258.7
348.12 K | 258.59
348.62 K | 258.82
349.12 K | 258.94
349.62 K | 258.82
350.12 K | 258.94
350.62 K | 259.17
351.12 K | 259.17
351.62 K | 259.29
352.12 K | 260.21
352.62 K | 260.1
353.12 K | 259.87
353.62 K | 260.33
354.12 K | 260.45
354.62 K | 259.75
355.12 K | 260.21
355.62 K | 260.45
356.12 K | 260.79
356.62 K | 260.79
357.12 K | 260.56
357.62 K | 260.79
358.12 K | 260.45
358.62 K | 260.56
359.12 K | 261.03
359.62 K | 260.68
360.12 K | 260.79
360.62 K | 261.03
361.12 K | 261.38
361.62 K | 261.61
362.12 K | 261.96
362.62 K | 262.07
363.12 K | 262.07
363.62 K | 262.07
364.12 K | 262.88
364.62 K | 262.77
365.12 K | 263.12
365.62 K | 263.7
366.12 K | 264.39
366.62 K | 264.39
367.12 K | 263.93
367.62 K | 263.47
368.12 K | 263.12
368.62 K | 263.12
369.12 K | 263.47
369.62 K | 263.47
370.12 K | 263.7
370.62 K | 263.7
371.12 K | 263.93
371.62 K | 264.05
372.12 K | 264.28
372.62 K | 264.05
373.12 K | 264.28
373.62 K | 264.28
374.12 K | 264.51

CCCCOC(=O)CCC(C)=O [butyl levulinate]
[1]
Conditions | thermal diffusivity [m2/s]
303.15 K | 7.77e-08
313.15 K | 7.68e-08
323.15 K | 7.57e-08
333.15 K | 7.48e-08
343.15 K | 7.37e-08
353.15 K | 7.26e-08
363.15 K | 7.15e-08
373.15 K | 7.06e-08

[1]
Conditions | Critical pressure [kPa] | Critical temperature [K]
– | 2410 | 692

[2], Liquid
Conditions | molar heat capacity at constant pressure [J/K/mol]
302.66 K | 336.87
303.16 K | 337.38
303.66 K | 338.59
304.16 K | 338.42
304.66 K | 337.73
305.16 K | 337.38
305.66 K | 337.73
306.16 K | 337.55
306.66 K | 338.42
307.16 K | 339.28
307.66 K | 338.76
308.16 K | 337.9
308.66 K | 338.24
309.16 K | 338.42
309.66 K | 339.1
310.16 K | 338.93
310.66 K | 340.14
311.16 K | 338.76
311.66 K | 338.59
312.16 K | 338.76
312.66 K | 338.76
313.16 K | 338.42
313.66 K | 338.76
314.16 K | 339.97
314.66 K | 339.79
315.16 K | 339.97
315.66 K | 339.62
316.16 K | 340.31
316.66 K | 340.14
317.16 K | 340.65
317.66 K | 340.65
318.16 K | 341.17
318.66 K | 341
319.16 K | 341.17
319.66 K | 341
320.16 K | 340.14
320.66 K | 341.69
321.16 K | 341.69
321.66 K | 341
322.16 K | 341
322.66 K | 341.69
323.16 K | 342.03
323.66 K | 342.38
324.16 K | 341.69
324.66 K | 342.89
325.16 K | 342.2
325.66 K | 341.52
326.16 K | 342.2
326.66 K | 343.24
327.16 K | 342.89
327.66 K | 343.07
328.16 K | 343.41
328.66 K | 341.34
329.16 K | 341.86
329.66 K | 342.38
330.16 K | 342.89
330.66 K | 342.89
331.16 K | 343.07
331.66 K | 342.38
332.16 K | 342.72
332.66 K | 343.58
333.16 K | 343.24
333.66 K | 344.27
334.16 K | 345.13
334.66 K | 344.44
335.16 K | 345.48
335.66 K | 344.79
336.16 K | 344.27
336.66 K | 345.65
337.16 K | 345.3
337.66 K | 345.3
338.16 K | 346.34
338.66 K | 346.51
339.16 K | 345.82
339.66 K | 346.34
340.16 K | 347.03
340.66 K | 346.17
341.16 K | 346.68
341.66 K | 346.17
342.16 K | 347.03
342.66 K | 346.68
343.16 K | 347.72
343.66 K | 347.37
344.16 K | 347.37
344.66 K | 347.54
345.16 K | 348.06
345.66 K | 348.23
346.16 K | 347.89
346.66 K | 348.58
347.16 K | 348.23
347.66 K | 349.09
348.16 K | 348.92
348.66 K | 349.27
349.16 K | 349.27
349.66 K | 349.78
350.16 K | 349.78
350.66 K | 350.13
351.16 K | 349.95
351.66 K | 349.61
352.16 K | 350.13
352.66 K | 348.58
353.16 K | 348.23
353.66 K | 348.58
354.16 K | 349.44
354.66 K | 349.95
355.16 K | 349.95
355.66 K | 350.64
356.16 K | 350.13
356.66 K | 350.13
357.16 K | 351.5
357.66 K | 350.99
358.16 K | 351.5
358.66 K | 351.68
359.16 K | 351.85
359.66 K | 351.85
360.16 K | 352.02
360.66 K | 351.68
361.16 K | 352.37
361.66 K | 353.05
362.16 K | 352.71
362.66 K | 352.88
363.16 K | 352.02
363.66 K | 352.71
364.16 K | 353.23
364.66 K | 353.57
365.16 K | 353.05
365.66 K | 353.4
366.16 K | 353.4
366.66 K | 354.6
367.16 K | 353.57
367.66 K | 353.57
368.16 K | 354.09
368.66 K | 353.92
369.16 K | 353.57
369.66 K | 353.4
370.16 K | 354.95
370.66 K | 354.78
371.16 K | 354.09
371.66 K | 354.78
372.16 K | 355.29
372.66 K | 355.81
373.16 K | 354.78
373.66 K | 355.81
374.16 K | 355.98
